Measured values published in PubChem BioAssay (NCI).
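Dose response: 5 concentrations. Exposure: 48 h. Format: 96-well plates. Endpoint: linear interpolation; highest concentration if not reached. At the GI50, growth is halved. TGI denotes the concentration required for complete inhibition of growth.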

Experiments:
Assay in all cases: inhibition of tumour cell growth, NCI panel, 48 h
786-0 renal = tested on: 786-0 renal
A498 renal = tested on: A498 renal
A549 NSCLC = tested on: A549 NSCLC
ACHN renal = tested on: ACHN renal
CAKI-1 renal = tested on: CAKI-1 renal
CCRF-CEM leukemia = tested on: CCRF-CEM leukemia
COLO 205 colon = tested on: COLO 205 colon
DU-145 prostate = tested on: DU-145 prostate
EKVX NSCLC = tested on: EKVX NSCLC
HCC-2998 colon = tested on: HCC-2998 colon
HCT-116 colon = tested on: HCT-116 colon
HCT-15 colon = tested on: HCT-15 colon
HL-60(TB) leukemia = tested on: HL-60(TB) leukemia
HOP-62 NSCLC = tested on: HOP-62 NSCLC
HOP-92 NSCLC = tested on: HOP-92 NSCLC
HS 578T breast = tested on: HS 578T breast
HT29 colon = tested on: HT29 colon
K-562 leukemia = tested on: K-562 leukemia
KM12 colon = tested on: KM12 colon
LOX IMVI melanoma = tested on: LOX IMVI melanoma
M14 melanoma = tested on: M14 melanoma
MALME-3M melanoma = tested on: MALME-3M melanoma
MDA-MB-231 breast = tested on: MDA-MB-231 breast
MDA-MB-435 = tested on: MDA-MB-435
MDA-MB-468 breast = tested on: MDA-MB-468 breast
MOLT-4 leukemia = tested on: MOLT-4 leukemia
NCI-H226 lung = tested on: NCI-H226 lung
NCI-H23 lung = tested on: NCI-H23 lung
NCI-H460 lung = tested on: NCI-H460 lung
NCI-H522 lung = tested on: NCI-H522 lung
NCI/ADR-RES ovarian = tested on: NCI/ADR-RES ovarian
OVCAR-3 ovarian = tested on: OVCAR-3 ovarian
OVCAR-4 ovarian = tested on: OVCAR-4 ovarian
OVCAR-5 ovarian = tested on: OVCAR-5 ovarian
OVCAR-8 ovarian = tested on: OVCAR-8 ovarian
PC-3 prostate = tested on: PC-3 prostate
RPMI-8226 leukemia = tested on: RPMI-8226 leukemia
RXF 393 renal = tested on: RXF 393 renal
SF-268 CNS = tested on: SF-268 CNS
SF-295 CNS = tested on: SF-295 CNS
SF-539 CNS = tested on: SF-539 CNS
SK-MEL-2 melanoma = tested on: SK-MEL-2 melanoma
SK-MEL-28 melanoma = tested on: SK-MEL-28 melanoma
SK-MEL-5 melanoma = tested on: SK-MEL-5 melanoma
SK-OV-3 ovarian = tested on: SK-OV-3 ovarian
SN12C renal = tested on: SN12C renal
SNB-19 CNS = tested on: SNB-19 CNS
SNB-75 CNS = tested on: SNB-75 CNS
SR leukemia = tested on: SR leukemia
SW-620 colon = tested on: SW-620 colon
TK-10 renal = tested on: TK-10 renal
U251 CNS = tested on: U251 CNS
UACC-257 melanoma = tested on: UACC-257 melanoma
UACC-62 melanoma = tested on: UACC-62 melanoma
UO-31 renal = tested on: UO-31 renal

COc1cc(-c2ccc3ncnc(N4CCc5ccc(Cl)cc54)c3c2)cnc1Cl
GI50 (786-0 renal): 3.22 µM | TGI (786-0 renal): 27.7 µM | GI50 (A498 renal): 1.54 µM | TGI (A498 renal): 7.16 µM | GI50 (A549 NSCLC): 3.03 µM | TGI (A549 NSCLC): > 100 µM | GI50 (ACHN renal): 2.4 µM | TGI (ACHN renal): 14.4 µM | GI50 (CAKI-1 renal): 1.66 µM | TGI (CAKI-1 renal): 12.7 µM | GI50 (CCRF-CEM leukemia): 5.7 µM | TGI (CCRF-CEM leukemia): > 100 µM | GI50 (COLO 205 colon): 4.21 µM | TGI (COLO 205 colon): > 100 µM | GI50 (DU-145 prostate): 3.21 µM | TGI (DU-145 prostate): > 100 µM | GI50 (EKVX NSCLC): 1.94 µM | TGI (EKVX NSCLC): > 100 µM | GI50 (HCC-2998 colon): 3.46 µM | TGI (HCC-2998 colon): > 100 µM | GI50 (HCT-116 colon): 2.89 µM | TGI (HCT-116 colon): > 100 µM | GI50 (HCT-15 colon): 3.17 µM | TGI (HCT-15 colon): > 100 µM | GI50 (HL-60(TB) leukemia): 2.1 µM | TGI (HL-60(TB) leukemia): 9.97 µM | GI50 (HOP-62 NSCLC): 6.12 µM | TGI (HOP-62 NSCLC): 81.3 µM | GI50 (HOP-92 NSCLC): 2.11 µM | TGI (HOP-92 NSCLC): > 100 µM | GI50 (HS 578T breast): 1.84 µM | TGI (HS 578T breast): 7.41 µM | GI50 (HT29 colon): 2.88 µM | TGI (HT29 colon): 16.4 µM | GI50 (K-562 leukemia): 3.83 µM | TGI (K-562 leukemia): > 100 µM | GI50 (KM12 colon): 3.99 µM | TGI (KM12 colon): > 100 µM | GI50 (LOX IMVI melanoma): 2.97 µM | TGI (LOX IMVI melanoma): 29.5 µM | GI50 (M14 melanoma): 3.88 µM | TGI (M14 melanoma): > 100 µM | GI50 (MALME-3M melanoma): 4.6 µM | TGI (MALME-3M melanoma): 43.3 µM | GI50 (MDA-MB-231 breast): 3.94 µM | TGI (MDA-MB-231 breast): 20.8 µM | GI50 (MDA-MB-435): 3.32 µM | TGI (MDA-MB-435): > 100 µM | GI50 (MDA-MB-468 breast): 1.26 µM | TGI (MDA-MB-468 breast): 4.47 µM | GI50 (MOLT-4 leukemia): 3.36 µM | TGI (MOLT-4 leukemia): > 100 µM | GI50 (NCI-H226 lung): 2.39 µM | TGI (NCI-H226 lung): 21.5 µM | GI50 (NCI-H23 lung): 2.91 µM | TGI (NCI-H23 lung): > 100 µM | GI50 (NCI-H460 lung): 2.95 µM | TGI (NCI-H460 lung): > 100 µM | GI50 (NCI-H522 lung): 2.12 µM | TGI (NCI-H522 lung): 10.1 µM | GI50 (NCI/ADR-RES ovarian): 2.23 µM | TGI (NCI/ADR-RES ovarian): > 100 µM | GI50 (OVCAR-3 ovarian): 2.49 µM | TGI (OVCAR-3 ovarian): > 100 µM | GI50 (OVCAR-4 ovarian): 3.12 µM | TGI (OVCAR-4 ovarian): 95.5 µM | GI50 (OVCAR-5 ovarian): 3.29 µM | TGI (OVCAR-5 ovarian): > 100 µM | GI50 (OVCAR-8 ovarian): 3.64 µM | TGI (OVCAR-8 ovarian): > 100 µM | GI50 (PC-3 prostate): 2.52 µM | TGI (PC-3 prostate): > 100 µM | GI50 (RPMI-8226 leukemia): 4.44 µM | TGI (RPMI-8226 leukemia): > 100 µM | GI50 (RXF 393 renal): 1.78 µM | TGI (RXF 393 renal): 6.77 µM | GI50 (SF-268 CNS): 3.29 µM | TGI (SF-268 CNS): > 100 µM | GI50 (SF-295 CNS): 2.62 µM | TGI (SF-295 CNS): 24.6 µM | GI50 (SF-539 CNS): 3.06 µM | TGI (SF-539 CNS): 11.6 µM | GI50 (SK-MEL-2 melanoma): 5.12 µM | TGI (SK-MEL-2 melanoma): > 100 µM | GI50 (SK-MEL-28 melanoma): 3.84 µM | TGI (SK-MEL-28 melanoma): 46.7 µM | GI50 (SK-MEL-5 melanoma): 2.15 µM | TGI (SK-MEL-5 melanoma): 9.36 µM | GI50 (SK-OV-3 ovarian): 3.84 µM | TGI (SK-OV-3 ovarian): > 100 µM | GI50 (SN12C renal): 3.34 µM | TGI (SN12C renal): > 100 µM | GI50 (SNB-19 CNS): 3.78 µM | TGI (SNB-19 CNS): 83.6 µM | GI50 (SNB-75 CNS): 1.56 µM | TGI (SNB-75 CNS): 7 µM | GI50 (SR leukemia): 4.08 µM | TGI (SR leukemia): > 100 µM | GI50 (SW-620 colon): 3.06 µM | TGI (SW-620 colon): > 100 µM | GI50 (TK-10 renal): 2.12 µM | TGI (TK-10 renal): 7.87 µM | GI50 (U251 CNS): 4.71 µM | TGI (U251 CNS): > 100 µM | GI50 (UACC-257 melanoma): 6.32 µM | TGI (UACC-257 melanoma): > 100 µM | GI50 (UACC-62 melanoma): 2.25 µM | TGI (UACC-62 melanoma): > 100 µM | GI50 (UO-31 renal): 1.14 µM | TGI (UO-31 renal): > 100 µM
